Experimental data reported in patent US8354414B2, “Substituted bicyclic pyrimidines” (Cephalon, Inc, priority 2006, dated 2013).

Key:
[1] = target: T1, CDK5/GST-p25 (Homo sapiens, UniProt Q00535); assay: Inhibition of CDK5/GST-p25 kinase activity (ELISA with time-resolved fluorescence readout); format: biochemical
T1 construct: The final construct, encoding for full-length human CDK5; made in house; host or cells: Sf21 insect cells (baculovirus co-infection)
In short: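 The substrate, GST-Rb(773-928), was immobilised on plates and phosphorylated for 20 min at 37 °C by 2 ng/ml CDK5/GST-p25 in HEPES pH 7.2 with 10 µM ATP and 10 mM MgCl2. Both proteins were human and co-expressed in insect cells. Ser-780 phosphorylation was read by europium time-resolved fluorescence and converted to IC50.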

[2] = target: T2, His6-GSK-3β (Homo sapiens, UniProt P49841); assay: Inhibition of His6-GSK-3β kinase activity (ELISA-based format, time-resolved fluorescence readout); format: biochemical; settings: class symbols; read-out: GSK3β IC50
T2 construct: made in house; host or cells: Sf21 insect cells (baculovirus)
In short: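 Plate-bound recombinant GST-Rb substrate was phosphorylated for 30 min at 37° C by baculovirus-expressed His6-GSK-3β (200 ng/ml) at 20 μM ATP, 10 mM MgCl2, 2.5% DMSO. Europium time-resolved fluorescence of anti-phospho-Ser780 Rb signal gave inhibition, fitted to IC50.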

T2 sequence (P49841 2-419): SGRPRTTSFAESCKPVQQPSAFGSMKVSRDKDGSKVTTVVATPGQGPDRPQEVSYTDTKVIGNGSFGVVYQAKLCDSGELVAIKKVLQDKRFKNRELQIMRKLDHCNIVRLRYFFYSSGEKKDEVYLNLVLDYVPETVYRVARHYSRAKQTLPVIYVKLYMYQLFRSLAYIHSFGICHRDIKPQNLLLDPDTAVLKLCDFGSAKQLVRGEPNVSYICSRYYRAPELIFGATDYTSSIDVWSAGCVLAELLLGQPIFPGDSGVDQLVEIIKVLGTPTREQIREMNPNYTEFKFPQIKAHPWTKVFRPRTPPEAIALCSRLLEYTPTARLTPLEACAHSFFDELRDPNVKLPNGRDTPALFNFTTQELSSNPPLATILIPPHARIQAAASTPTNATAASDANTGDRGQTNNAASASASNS
T1 sequence (Q00535 whole entry): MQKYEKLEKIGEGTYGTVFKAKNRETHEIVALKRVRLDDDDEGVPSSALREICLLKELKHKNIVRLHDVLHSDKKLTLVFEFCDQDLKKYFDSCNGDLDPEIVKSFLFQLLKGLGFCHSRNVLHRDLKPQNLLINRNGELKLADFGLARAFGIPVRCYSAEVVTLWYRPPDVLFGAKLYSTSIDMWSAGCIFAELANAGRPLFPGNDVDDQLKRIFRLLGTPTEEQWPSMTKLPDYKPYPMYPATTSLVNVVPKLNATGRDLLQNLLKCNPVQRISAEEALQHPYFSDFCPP
T1 sequence (Q15078 108-307 partner limits assumed): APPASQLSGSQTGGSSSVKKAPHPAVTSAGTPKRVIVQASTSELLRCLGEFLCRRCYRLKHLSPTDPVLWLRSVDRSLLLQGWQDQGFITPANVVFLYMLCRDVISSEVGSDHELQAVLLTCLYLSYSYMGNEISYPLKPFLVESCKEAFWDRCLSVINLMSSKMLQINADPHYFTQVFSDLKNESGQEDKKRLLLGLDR

Row | Compound | IC50 ([1]; class symbols) [nM] | IC50 [2] [nM] | melting point | IC50 ([1]; numeric bounds) [nM] | inhibition at 10 µM [1] [%]
1 | COCCn1cc2c(C3C(=O)Nc4ccc(Br)cc43)nc(NCCN3CCOCC3)nc2n1 (stereo not drawn) [Example 234, 5-Bromo-3-[2-(2-methoxy-ethyl)-6-(2-morpholin-4-yl-ethylamino)-2H-pyrazolo[3,4-d]pyrimidin-4-yl]-1,3-dihydro-indol-2-one] | < 300 | < 300 | > 300 °C |  | 
2 | CC(C)Cn1cc2c(C3C(=O)Nc4ccc(Cl)cc43)nc(NCCCN3CCOCC3)nc2n1 (stereo not drawn) [Example 271, 5-Chloro-3-[2-isobutyl-6-(3-morpholin-4-yl-propylamino)-2H-pyrazolo[3,4-d]pyrimidin-4-yl]-1,3-dihydro-indol-2-one] | < 300 | < 300 | 263 to 265.5 °C |  | 
3 | CCOCCn1cc2c(C3C(=O)Nc4ccc(Br)cc43)nc(NCCN3CCOCC3)nc2n1 (stereo not drawn) [Example 240, 5-Bromo-3-[2-(2-ethoxy-ethyl)-6-(2-morpholin-4-yl-ethylamino)-2H-pyrazolo [3,4-d]pyrimidin-4-yl]-1,3-dihydro-indol-2-one] | < 300 | < 300 | 276 to 278 °C |  | 
4 | CCCn1cc2c(C3C(=O)Nc4ccc(Br)cc43)nc(NCCN3CCOCC3)nc2n1 (stereo not drawn) [Example 202, 5-Bromo-3-[6-(2-morpholin-4-yl-ethylamino)-2-propyl-2H-pyrazolo [3,4-d]pyrimidin-4-yl]-1,3-dihydro-indol-2-one] | < 300 | < 300 | 299 to 303 °C |  | 
5 | O=C1Nc2ccc(C(F)(F)F)cc2C1c1ncnc2c1cnn2C1CCCCC1 (stereo not drawn) [Example 71, 3-(1-Cyclohexyl-1H-pyrazolo [3,4-d]pyrimidin-4-yl)-5-trifluoromethyl-1,3-dihydro-indol-2-one] | > 10000 | > 10000 | > 300 °C |  | 
6 | CC(C)Nc1nc(C2C(=O)Nc3ccc(C(F)(F)F)cc32)c2cn(C3CCCC3)nc2n1 (stereo not drawn) [Example 250, 3-(2-Cyclopentyl-6-isopropylamino-2H-pyrazolo[3,4-d]pyrimidin-4-yl)-5-trifluoromethyl-1,3-dihydro-indol-2-one] | > 10000 | < 300 | 299 to 301 °C |  | 
7 | N#Cc1ccc2c(c1)C(c1ncnc3c1cnn3C1CCCC1)C(=O)N2 (stereo not drawn) [Example 55, 3-(1-Cyclopentyl-1H-pyrazolo[3,4-d]pyrimidin-4-yl)-2-oxo-2,3-dihydro-1H-indole-5-carbonitrile] | > 10000 | 300 to 3000 | > 300 °C |  | 
8 | O=C1Nc2c(cc([N+](=O)[O-])cc2[N+](=O)[O-])C1c1ncnc2c1cnn2C1CCCC1 (stereo not drawn) [Example 60, 3-(1-cyclopentyl-1H-pyrazolo[3,4-d]pyrimidin-4-yl)-5,7-dinitro-1,3-dihydro-indol-2-one] | > 10000 | > 10000 | 242 to 246 °C |  | 
9 | CNCCNc1nc(C2C(=O)Nc3ccc(Br)cc32)c2cn(C3CCCC3)nc2n1.Cl (stereo not drawn) [Example 378, 5-Bromo-3-[2-cyclopentyl-6-(2-methylamino-ethylamino)-2H-pyrazolo [3,4-d]pyrimidin-4-yl]-1,3-dihydro-indol-2-one hydrochloride salt] |  | 300 to 3000 | 201 to 204 °C | > 3000 | 
10 | O=C1Nc2ccc(C(F)(F)F)cc2C1c1nc(NCc2ccncc2)nc2nn(C3CCCC3)cc12 (stereo not drawn) [Example 246, 3-{2-Cyclopentyl-6-[(pyridin-4-ylmethyl)-amino]-2H-pyrazolo[3,4-d]pyrimidin-4-yl}-5-trifluoromethyl-1,3-dihydro-indol-2-one] |  | < 300 | > 300 °C | > 3000 | 
11 | CCCn1cc2c(C3C(=O)Nc4ccc(C#N)cc43)nc(NCCc3ccccn3)nc2n1 (stereo not drawn) [Example 187, 2-Oxo-3-[2-propyl-6-(2-pyridin-2-yl-ethylamino)-2H-pyrazolo[3,4-d]pyrimidin-4-yl]-2,3-dihydro-1H-indole-5-carbonitrile] | < 300 | < 300 | > 300 °C |  | 
12 | O=C1Nc2ccc(Cl)cc2C1c1ncnc2nn(C3CCCCC3)cc12 (stereo not drawn) [Example 48, 5-Chloro-3-(2-cyclohexyl-2H-pyrazolo[3,4-d]pyrimidin-4-yl)-1,3-dihydro-indol-2-one] | 300 to 3000 | < 300 | 294 to 298 °C |  | 
13 | COCCn1cc2c(C3C(=O)Nc4ccc(Br)cc43)nc(Cl)nc2n1 (stereo not drawn) [Example 225, 5-Bromo-3-[6-chloro-2-(2-methoxy-ethyl)-2H-pyrazolo [3,4-d]pyrimidin-4-yl]-1,3-dihydro-indol-2-one] | > 10000 | < 300 | > 300 °C |  | 
14 | Cn1ncc2c(C3C(=O)Nc4ccc(C#N)cc43)ncnc21 (stereo not drawn) [Example 108, 3-(1-methyl-1H-pyrazolo[3,4-d]pyrimidin-4-yl)-2-oxo-2,3-dihydro-1H-indole-5-carbonitrile] | < 300 | > 10000 | > 300 °C (dec.) |  | 
15 | O=C1Nc2ccccc2C1c1nc(NCc2cccnc2)nc2nn(C3CCCC3)cc12 (stereo not drawn) [Example 156, 3-{2-cyclopentyl-6-[(pyridin-3-ylmethyl)-amino]-2H-pyrazolo [3,4-d]pyrimidin-4-yl}-1,3-dihydro-indol-2-one] | < 300 | < 300 | 216 to 218 °C |  | 
16 | [N-]=[N+]=NCCCn1cc2c(C3C(=O)Nc4ccc(Br)cc43)ncnc2n1 (stereo not drawn) [Example 89, 3-[2-(3-azido-propyl)-2H-pyrazolo[3,4-d]pyrimidin-4-yl]-5-bromo-1,3-dihydro-indol-2-one] | < 300 | < 300 | 252 to 256 °C |  | 
17 | CN(C)CCNc1nc(C2C(=O)Nc3ccc(Cl)cc32)c2cn(C3CCCC3)nc2n1 (stereo not drawn) [Example 376, 5-Chloro-3-[2-cyclopentyl-6-(2-dimethylamino-ethylamino)-2H-pyrazolo [3,4-d]pyrimidin-4-yl]-1,3-dihydro-indol-2-one] | > 10000 | 300 to 3000 | 145 to 148 °C |  | 
18 | CCCn1cc2c(C3C(=O)Nc4ccc(Br)cc43)nc(NCc3cccnc3)nc2n1 (stereo not drawn) [Example 196, 5-Bromo-3-{2-propyl-6-[(pyridin-3-ylmethyl)-amino]-2H-pyrazolo[3,4-d]pyrimidin-4-yl}-1,3-dihydro-indol-2-one] | < 300 | < 300 | 277 to 281 °C |  | 
19 | CC(C)CNc1nc(C2C(=O)Nc3ccc(C#N)cc32)c2cn(C3CCCC3)nc2n1 (stereo not drawn) [Example 165, 3-(2-cyclopentyl-6-isobutylamino-2H-pyrazolo [3,4-d]pyrimidin-4-yl)-2-oxo-2,3-dihydro-1H-indole-5-carbonitrile] | < 300 | < 300 | 297 to 298.5 °C |  | 
20 | C=CCNc1nc(C2C(=O)Nc3ccc(C#N)cc32)c2cn(CCCCC)nc2n1 (stereo not drawn) [Example 293, 3-(6-Allylamino-2-pentyl-2H-pyrazolo[3,4-d]pyrimidin-4-yl)-2-oxo-2,3-dihydro-1H-indole-5-carbonitrile] | < 300 | < 300 | 265 °C (dec.) |  | 
21 | CCCn1cc2c(C3C(=O)Nc4ccc(Br)cc43)nc(NCCCN3CCOCC3)nc2n1 (stereo not drawn) [Example 203, 5-Bromo-3-[6-(3-morpholin-4-yl-propylamino)-2-propyl-2H-pyrazolo [3,4-d]pyrimidin-4-yl]-1,3-dihydro-indol-2-one] | < 300 | < 300 | 298 to 303 °C |  | 
22 | Cn1ncc2c(C3C(=O)Nc4ccc(Cl)cc43)ncnc21 (stereo not drawn) [Example 86, 5-Chloro-3-(1-methyl-1H-pyrazolo[3,4-d]pyrimidin-4-yl)-1,3-dihydro-indol-2-one] | < 300 | > 10000 | > 320 °C |  | 
23 | O=C1Nc2c(cc([N+](=O)[O-])cc2[N+](=O)[O-])C1c1ncnc2nn(C3CCCC3)cc12 (stereo not drawn) [Example 43, 3-(2-Cyclopentyl-2H-pyrazolo[3,4-d]pyrimidin-4-yl)-5,7-dinitro-1,3-dihydro-indol-2-one] | 300 to 3000 | 300 to 3000 | > 300 °C |  | 
24 | CCCn1cc2c(C3C(=O)Nc4ccc(Br)cc43)nc(NC[C@@H](C)N)nc2n1 (stereo partly drawn) [Example 369, 3-[6-(2-(R)-Amino-propylamino)-2-propyl-2H-pyrazolo[3,4-d]pyrimidin-4-yl]-5-bromo-1,3-dihydro-indol-2-one] | 300 to 3000 | < 300 | 247 to 250 °C |  | 
25 | N#Cc1cccc2c1NC(=O)C2c1ncnc2c1cnn2C1CCCCC1 (stereo not drawn) [Example 70, 3-(1-Cyclohexyl-1H-pyrazolo [3,4-d]pyrimidin-4-yl)-2-oxo-2,3-dihydro-1H-indole-7-carbonitrile] | > 10000 | > 10000 | > 300 °C |  | 
26 | CC(=O)NCCNc1nc(C2C(=O)Nc3ccc(Cl)cc32)c2cn(C3CCCC3)nc2n1 (stereo not drawn) [Example 276, N-{2-[4(5-Chloro-2-oxo-2,3-dihydro-1H-indol-3-yl)-2-cyclopentyl-2H-pyrazolo[3,4-d]pyrimidin-6-ylamino]-ethyl}-acetamide] | 300 to 3000 | < 300 | 209 to 226 °C |  | 
27 | CC(C)Nc1nc(C2C(=O)Nc3ccc(C#N)cc32)c2cn(C3CCCC3)nc2n1 (stereo not drawn) [Example 150, 3-(2-cyclopentyl-6-isopropylamino-2H-pyrazolo [3,4-d]pyrimidin-4-yl)-2-oxo-2,3-dihydro-1H-indole-5-carbonitrile] |  | < 300 | > 300 °C |  | 76
